According to publication PMC7023430, “4-Aminobenzoic Acid Derivatives: Converting Folate Precursor to Antimicrobial and Cytotoxic Agents” (Biomolecules, 2019):
Values after ≈ are worked out from the molar mass of the structure shown. Where two headings read alike, the source gives them in different places.

Key:
Candida tropicalis 156 = test: Antifungal microdilution broth method, C. tropicalis; format: cell-based
In short: (§1)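 Panel covers five yeasts and three filamentous fungi tested by a slightly modified EUCAST microdilution protocol. Growth medium is glucose-supplemented (2%) RPMI-1640 with L-glutamine at pH 7.0 (MOPS). Endpoints are judged visually from duplicate runs.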

[1] = system: Staphylococcus aureus ATCC 29213, CCM 4223; test: Antibacterial microdilution broth method, S. aureus; format: cell-based
Candida krusei E28 = test: Antifungal microdilution broth method, C. krusei; format: cell-based; details: Pichia kudriavzevii
In short: as §1

HepG2 cells = test: Cytotoxicity, CellTiter 96 assay; format: cell-based, human; details: Homo sapiens, HepG2, 24 h, 24 h incubation
Procedure: HepG2, human hepatocellular carcinoma cells (ATCC HB-8065; passage 5–8) purchased from Health Protection Agency Culture Collections (ECACC, Salisbury, UK) were cultured in Minimum Essentials Eagle Medium supplemented with 10% fetal bovine serum, 1% L-glutamine solution and non-essential amino acid solution (Sigma-Aldrich, St. Louis, MO, USA) in a humidified atmosphere containing 5% CO2 at 37 °C. For subculturing, the cells were harvested after trypsin/EDTA (Sigma-Aldrich, St. Louis, USA) treatment at 37 °C. To evaluate cytotoxicity, the cells treated with the tested substances were used as experimental groups whereas untreated HepG2 cells served as control groups.
The cells were seeded in a density of 10 000 cells per well in a 96-well plate. The following day the cells were treated with each of the tested substances dissolved in DMSO (maximal incubation concentration of DMSO was 1% v/v). The tested substances were prepared at different incubation concentrations in triplicates according to their solubility. Simultaneously, the controls representing 100% cell viability, 0% cell viability (the cells treated with 10% DMSO), no cell control and vehiculum controls were also involved in triplicates. After 24 h incubation in a humidified atmosphere containing 5% CO2 at 37 °C, the reagent from the kit CellTiter 96 AQueous One Solution Cell Proliferation Assay (CellTiter 96; Promega, Fitchburg, WI, USA) was added. After 2 h incubation at 37 °C absorbance of samples was recorded at 490 nm (TECAN, Infinita M200, Grödig, Austria). A standard toxicological parameter IC50 was calculated by nonlinear regression from a semilogarithmic plot of incubation concentration versus percentage of absorbance relative to untreated controls using GraphPad Prism software (version 6; GraphPad Software, Inc., La Jolla, CA, USA).
The CellTiter 96 assay used is based on the reduction of tetrazolium dye in living cells to formazan, which is then determined colorimetrically. This reduction is related to availability of NADH or NADPH. The decline in levels of these metabolically important compounds in the cell causes that the production of formazan is reduced. For quantitative comparison of cytotoxicity, the parameter IC50 was used.

[2] = system: Mycobacterium kansasii 235/80; test: Antimycobacterial micromethod in Šula's medium, M. kansasii 235/80; format: cell-based
[3] = system: Staphylococcus epidermidis H 6966/08; test: Antibacterial microdilution broth method, S. epidermidis; format: cell-based; details: Staphylococcus epidermidis, H6966/08, S. epidermidis
Candida glabrata 20/I = test: Antifungal microdilution broth method, C. glabrata; format: cell-based; details: Nakaseomyces glabratus
In short: as §1

[4] = system: Aspergillus fumigatus 231; test: Antifungal microdilution broth method, A. fumigatus; format: cell-based
In short: as §1

[5] = system: Candida albicans ATCC 44859; test: Antifungal microdilution broth method, C. albicans; format: cell-based
In short: as §1

[6] = system: M. kansasii 6509/96 (clinical isolate); test: Antimycobacterial micromethod in Šula's medium, M. kansasii 6509/96; format: cell-based; details: Mycobacterium kansasii
[7] = system: Lichtheimia corymbifera 272; test: Antifungal microdilution broth method, L. corymbifera; format: cell-based
In short: as §1

[8] = system: Klebsiella pneumoniae D 11750/08; test: Antibacterial microdilution broth method, K. pneumoniae; details: K. pneumoniae D 11750/08; for MIC KP 24 h: 24 h incubation; for MIC KP 48 h: 48 h incubation
[9] = system: ESBL-positive Klebsiella pneumoniae J 14368/08
[10] = system: Trichophyton interdigitale 445; test: Antifungal microdilution broth method, T. interdigitale; format: cell-based
In short: as §1

[11] = system: methicillin-resistant Staphylococcus aureus ATCC 43300, CCM 4750 (MRSA); test: Antibacterial microdilution broth method, MRSA; format: cell-based; details: Staphylococcus aureus
[12] = system: Pseudomonas aeruginosa ATCC 27853, CCM 3955; test: Antibacterial microdilution broth method, P. aeruginosa; format: cell-based; details: Pseudomonas aeruginosa, P. aeruginosa
[13] = 24 h incubation, read-out: MIC SA 24 h
[14] = 48 h incubation, read-out: MIC SA 48 h
[15] = 235/80, 168 h, 7 days incubation at 37 °C, read-out: MIC M. kansasii 235/80 7 d
[16] = 235/80, 336 h, 14 days incubation at 37 °C, read-out: MIC M. kansasii 235/80 14 d
[17] = 235/80, 504 h, 21 days incubation at 37 °C, read-out: MIC M. kansasii 235/80 21 d
[18] = 24 h incubation, read-out: MIC SE 24 h
[19] = 48 h incubation, read-out: MIC SE 48 h
[20] = ATCC44859, 24 h, read-out: MIC CA 24 h
[21] = ATCC44859, 48 h, read-out: MIC CA 48 h
[22] = 168 h, 7 days incubation at 37 °C, read-out: MIC M. kansasii 6509/96 7 d
[23] = 336 h, 14 days incubation at 37 °C, read-out: MIC M. kansasii 6509/96 14 d
[24] = 504 h, 21 days incubation at 37 °C, read-out: MIC M. kansasii 6509/96 21 d
[25] = 24 h incubation, read-out: MIC MRSA 24 h
[26] = 48 h incubation, read-out: MIC MRSA 48 h
[27] = 24 h incubation, read-out: MIC PA 24 h
[28] = 48 h incubation, read-out: MIC PA 48 h

O=C(O)c1ccc(N=Cc2cc(Br)ccc2O)cc1 [1d, 4-[(5-Bromo-2-hydroxybenzylidene)amino]benzoic acid]
MIC (Candida tropicalis 156; 24 h, read-out: MIC CT 24 h): 125 µM (≈ 40 µg/mL) | MIC (Candida tropicalis 156; 48 h, read-out: MIC CT 48 h): 125 µM (≈ 40 µg/mL) | MIC [1, 13]: > 250 µM | MIC [1, 14]: > 250 µM | MIC (Candida krusei E28; 24 h, read-out: MIC CK 24 h): 125 µM (≈ 40 µg/mL) | MIC (Candida krusei E28; 48 h, read-out: MIC CK 48 h): 125 µM (≈ 40 µg/mL) | IC50 (HepG2 cells): 179 µM | MIC [2, 15]: 250 µM (≈ 80 µg/mL) | MIC [2, 16]: 250 µM (≈ 80 µg/mL) | MIC [2, 17]: 500 µM (≈ 160 µg/mL) | MIC [3, 18]: 62.5 µM (≈ 20 µg/mL) | MIC [3, 19]: 62.5 µM (≈ 20 µg/mL) | MIC (Candida glabrata 20/I; 24 h, read-out: MIC CG 24 h): 62.5 µM (≈ 20 µg/mL) | MIC (Candida glabrata 20/I; 48 h, read-out: MIC CG 48 h): 62.5 µM (≈ 20 µg/mL) | MIC ([4]; 24 h, read-out: MIC AF 24 h): 250 µM (≈ 80 µg/mL) | MIC ([4]; 48 h, read-out: MIC AF 48 h): 250 µM (≈ 80 µg/mL) | MIC [5, 20]: 62.5 µM (≈ 20 µg/mL) | MIC [5, 21]: 62.5 µM (≈ 20 µg/mL) | MIC [6, 22]: 500 µM (≈ 160 µg/mL) | MIC [6, 23]: 500 µM (≈ 160 µg/mL) | MIC [6, 24]: 500 µM (≈ 160 µg/mL) | MIC ([7]; 24 h, read-out: MIC LC 24 h): > 250 µM | MIC ([7]; 48 h, read-out: MIC LC 48 h): > 250 µM | MIC KP 24 h [8]: >250 µM | MIC KP 48 h [8]: >250 µM | MIC KP-E 24 h [9]: >250 µM | MIC KP-E 48 h [9]: >250 µM | MIC ([10]; 72 h, read-out: MIC TI 72 h): 62.5 µM (≈ 20 µg/mL) | MIC ([10]; 120 h, read-out: MIC TI 120 h): 62.5 µM (≈ 20 µg/mL) | MIC [11, 25]: > 250 µM | MIC [11, 26]: > 250 µM | MIC [12, 27]: > 250 µM | MIC [12, 28]: > 250 µM

O=C(O)c1ccc(N=Cc2cc(I)ccc2O)cc1 [1e, 4-[(2-Hydroxy-5-iodobenzylidene)amino]benzoic acid]
MIC (Candida tropicalis 156; 24 h, read-out: MIC CT 24 h): 125 µM (≈ 45.9 µg/mL) | MIC (Candida tropicalis 156; 48 h, read-out: MIC CT 48 h): 125 µM (≈ 45.9 µg/mL) | MIC [1, 13]: > 250 µM | MIC [1, 14]: > 250 µM | MIC (Candida krusei E28; 24 h, read-out: MIC CK 24 h): 62.5 µM (≈ 22.9 µg/mL) | MIC (Candida krusei E28; 48 h, read-out: MIC CK 48 h): 62.5 µM (≈ 22.9 µg/mL) | IC50 (HepG2 cells): 113 µM | MIC [2, 15]: 250 µM (≈ 91.8 µg/mL) | MIC [2, 16]: 250 µM (≈ 91.8 µg/mL) | MIC [2, 17]: 250 µM (≈ 91.8 µg/mL) | MIC [3, 18]: 62.5 µM (≈ 22.9 µg/mL) | MIC [3, 19]: 62.5 µM (≈ 22.9 µg/mL) | MIC (Candida glabrata 20/I; 24 h, read-out: MIC CG 24 h): 31.2 µM (≈ 11.5 µg/mL) | MIC (Candida glabrata 20/I; 48 h, read-out: MIC CG 48 h): 31.2 µM (≈ 11.5 µg/mL) | MIC ([4]; 24 h, read-out: MIC AF 24 h): 125 µM (≈ 45.9 µg/mL) | MIC ([4]; 48 h, read-out: MIC AF 48 h): 125 µM (≈ 45.9 µg/mL) | MIC [5, 20]: 62.5 µM (≈ 22.9 µg/mL) | MIC [5, 21]: 62.5 µM (≈ 22.9 µg/mL) | MIC [6, 22]: 250 µM (≈ 91.8 µg/mL) | MIC [6, 23]: 250 µM (≈ 91.8 µg/mL) | MIC [6, 24]: 500 µM (≈ 184 µg/mL) | MIC ([7]; 24 h, read-out: MIC LC 24 h): > 125 µM | MIC ([7]; 48 h, read-out: MIC LC 48 h): > 125 µM | MIC KP 24 h [8]: >250 µM | MIC KP 48 h [8]: >250 µM | MIC KP-E 24 h [9]: >250 µM | MIC KP-E 48 h [9]: >250 µM | MIC ([10]; 72 h, read-out: MIC TI 72 h): 31.2 µM (≈ 11.5 µg/mL) | MIC ([10]; 120 h, read-out: MIC TI 120 h): 31.2 µM (≈ 11.5 µg/mL) | MIC [11, 25]: 250 µM (≈ 91.8 µg/mL) | MIC [11, 26]: 250 µM (≈ 91.8 µg/mL) | MIC [12, 27]: > 250 µM | MIC [12, 28]: > 250 µM

O=C(O)c1ccc(N=Cc2cc([N+](=O)[O-])ccc2O)cc1 [1f, 4-[(2-Hydroxy-5-nitrobenzylidene)amino]benzoic acid]
MIC (Candida tropicalis 156; 24 h, read-out: MIC CT 24 h): > 500 µM | MIC (Candida tropicalis 156; 48 h, read-out: MIC CT 48 h): > 500 µM | MIC [1, 13]: 500 µM (≈ 143 µg/mL) | MIC [1, 14]: 500 µM (≈ 143 µg/mL) | MIC (Candida krusei E28; 24 h, read-out: MIC CK 24 h): > 500 µM | MIC (Candida krusei E28; 48 h, read-out: MIC CK 48 h): > 500 µM | IC50 (HepG2 cells): 244 µM | MIC [2, 15]: 500 µM (≈ 143 µg/mL) | MIC [2, 16]: 500 µM (≈ 143 µg/mL) | MIC [2, 17]: 500 µM (≈ 143 µg/mL) | MIC [3, 18]: 250 µM (≈ 71.6 µg/mL) | MIC [3, 19]: 250 µM (≈ 71.6 µg/mL) | MIC (Candida glabrata 20/I; 24 h, read-out: MIC CG 24 h): > 500 µM | MIC (Candida glabrata 20/I; 48 h, read-out: MIC CG 48 h): > 500 µM | MIC ([4]; 24 h, read-out: MIC AF 24 h): > 500 µM | MIC ([4]; 48 h, read-out: MIC AF 48 h): > 500 µM | MIC [5, 20]: 500 µM (≈ 143 µg/mL) | MIC [5, 21]: 500 µM (≈ 143 µg/mL) | MIC [6, 22]: 500 µM (≈ 143 µg/mL) | MIC [6, 23]: 500 µM (≈ 143 µg/mL) | MIC [6, 24]: 500 µM (≈ 143 µg/mL) | MIC ([7]; 24 h, read-out: MIC LC 24 h): 500 µM (≈ 143 µg/mL) | MIC ([7]; 48 h, read-out: MIC LC 48 h): 500 µM (≈ 143 µg/mL) | MIC KP 24 h [8]: >500 µM | MIC KP 48 h [8]: >500 µM | MIC KP-E 24 h [9]: >500 µM | MIC KP-E 48 h [9]: >500 µM | MIC ([10]; 72 h, read-out: MIC TI 72 h): 500 µM (≈ 143 µg/mL) | MIC ([10]; 120 h, read-out: MIC TI 120 h): 500 µM (≈ 143 µg/mL) | MIC [11, 25]: 500 µM (≈ 143 µg/mL) | MIC [11, 26]: 500 µM (≈ 143 µg/mL) | MIC [12, 27]: > 500 µM | MIC [12, 28]: > 500 µM
